Measurements: PubChem BioAssay AID1996
≈ marks a conversion by molar mass, not a printed value.

Settings: buffer; pH 7.4; 200.0 µM
For Cc1onc(-c2c(Cl)cccc2Cl)c1/C(N)=N/OC(=O)N(C)C, the solubility kinetic was greater than 53.6 µg/mL.
For COc1ccc(/C=C/C(=O)N2CCN(c3ccccn3)CC2)cc1OC, the solubility kinetic was greater than 53 µg/mL.
CCc1nc2ccccc2n1CC(=O)NC1CCS(=O)(=O)C1 (configuration not stated) gave a solubility kinetic greater than 48.2 µg/mL.
COc1cc(/C=C/C(=O)OCC(=O)N(C)Cc2ccccc2)cc(OC)c1OC showed a solubility kinetic greater than 59.9 µg/mL.
COc1cc(C=O)ccc1OC(=O)N1CCOCC1 showed a solubility kinetic greater than 39.8 µg/mL.
With O=[N+]([O-])c1ccc2c(c1)nc1n2CCSC1 the solubility kinetic was greater than 35.3 µg/mL.
Work on CC(C)Cn1c(=O)[nH]c(=O)c2c(C(F)(F)F)cc(-c3ccccc3)nc21 yielded a solubility kinetic of less than 0.3 µg/mL.
O=C(CN1CCCc2ccccc21)Nc1ccc(F)cc1[N+](=O)[O-] showed a solubility kinetic of less than 0.2 µg/mL.
In the case of CC(C)(C)NCC(O)c1cc(Cl)c(N)c(Cl)c1.Cl (configuration not stated), the solubility kinetic is reported as 46.5 µg/mL.
Compound O=C(NCc1cccnc1)C12CC3CC(CC(C3)C1)C2 has a solubility kinetic of 38.7 µg/mL (≈ 143 µM).
With O=C1NC2=C(C(=O)CCC2)C(c2ccc([N+](=O)[O-])cc2)N1 (configuration not stated) the solubility kinetic was greater than 43.1 µg/mL.
CCC1(c2ccc(N)cc2)CCC(=O)NC1=O (configuration not stated) showed a solubility kinetic greater than 34.8 µg/mL.
For CN1CCN(c2nnc(-c3ccc(F)cc3)c3ccccc23)CC1, the solubility kinetic was greater than 48.4 µg/mL.
For C#CCOn1c(-n2nc(C)cc2C)nc2ccccc2c1=O, the solubility kinetic was greater than 44.1 µg/mL.
O=C1C=C(NC2CCCC2)CC(c2ccccc2)C1 (configuration not stated) gave a solubility kinetic greater than 38.3 µg/mL.
Compound C=CC[N+]1(CC=C)CCOCC1.[Br-] has a solubility kinetic greater than 37.2 µg/mL.
Work on O=Cc1c(Nc2cccc(C(F)(F)F)c2)nc2ccccn2c1=O yielded a solubility kinetic of 1.7 µg/mL (≈ 5.1 µM).
O=C(OCC(=O)N1CCCCC1)c1cccs1 gave a solubility kinetic greater than 38 µg/mL.
With COc1ccc(NC(=S)N2CCC(c3ccc(C)cc3)C2)cc1 (configuration not stated) the solubility kinetic was 0.6 µg/mL (≈ 1.84 µM).
For CSc1ccccc1C(=O)Nc1nc2ccccc2[nH]1, the solubility kinetic was 3.1 µg/mL (≈ 10.9 µM).
c1ccc(Nc2nc(-c3ccccc3)ns2)cc1 showed a solubility kinetic of less than 0.2 µg/mL.
Cc1cccc(NC(=O)C2CC2c2ccccc2)c1C (configuration not stated) gave a solubility kinetic of 3.8 µg/mL (≈ 14.3 µM).
O=C1CNC(=S)N1Cc1ccc(F)cc1 showed a solubility kinetic greater than 33.6 µg/mL.
Compound Cc1nc2ccccc2n1Cc1ccc(Cl)cc1 has a solubility kinetic of 24.9 µg/mL (≈ 97 µM).
Compound Cc1cc(C)cc(Nc2ccc(C(=O)O)cc2[N+](=O)[O-])c1 has a solubility kinetic greater than 42.9 µg/mL.
CNc1nc(NC#N)nc(SC)n1 showed a solubility kinetic of 24.9 µg/mL (≈ 127 µM).
For O=C(COC(=O)COc1ccccc1)NC1CCCC1, the solubility kinetic was greater than 41.6 µg/mL.
O=C(CCN1C(=O)c2ccccc2C1=O)CN1CCOCC1 gave a solubility kinetic of 36.5 µg/mL (≈ 121 µM).
With O=C(O)c1ccccc1NCc1cccs1 the solubility kinetic was 23.8 µg/mL (≈ 102 µM).
Compound Cl.Cn1cccc1CNCC(O)c1ccccc1 (configuration not stated) has a solubility kinetic greater than 40 µg/mL.
CC#C[C@]1(O)CC[C@H]2[C@@H]3CCC4=CC(=O)CCC4=C3[C@@H](c3ccc(N(C)C)cc3)C[C@@]21C gave a solubility kinetic of 7 µg/mL (≈ 16.3 µM).
CCOc1ccc(Nc2cc(C)nc3c(C)cccc23)cc1 gave a solubility kinetic of 24.5 µg/mL (≈ 83.8 µM).
Compound COC(=O)c1ccccc1NC(=O)CN1CCCCCC1 has a solubility kinetic of 31.6 µg/mL (≈ 109 µM).
Work on CCCCOc1ccc(C(=O)OCC(=O)N2CCCCCC2)cc1 yielded a solubility kinetic of 8.4 µg/mL (≈ 25.2 µM).
In the case of COc1cccc(C2NC(=O)CCC2[N+](=O)[O-])c1 (configuration not stated), the solubility kinetic is reported as greater than 37.5 µg/mL.
Compound COc1ccc(/C(C)=N/NC2=NCCN2)cc1Cl has a solubility kinetic greater than 40 µg/mL.
For Cc1cnc(NS(=O)(=O)c2ccc(Cl)cc2)c(Br)c1, the solubility kinetic was greater than 54.2 µg/mL.
COc1ccc(NC(=S)Nc2ccc3nccnc3c2)cc1 showed a solubility kinetic of 22.8 µg/mL (≈ 73.5 µM).
With O=C(N/C(=C\c1ccc(Cl)cc1)C(=O)N1CCOCC1)c1ccco1 the solubility kinetic was greater than 54.1 µg/mL.
In the case of COC(=O)c1sccc1NC(=O)NC1CCCCC1, the solubility kinetic is reported as 23.8 µg/mL (≈ 84.3 µM).
Work on CCCCc1ccccc1NC(=S)NC1CCCC1 yielded a solubility kinetic of 30.5 µg/mL (≈ 110 µM).
With CC(=O)Nc1sc2c(c1C#N)CCC2 the solubility kinetic was greater than 30.9 µg/mL.
Compound Cc1cccc(NC(=S)N2CCCCCC2)c1C has a solubility kinetic greater than 39.4 µg/mL.
For CC(=O)N1CCN(c2ccc(NC(=O)c3ccccc3C)cc2)CC1, the solubility kinetic was 36.8 µg/mL (≈ 109 µM).
O=S(=O)(c1ccc(=S)[nH]c1)N1CCCCC1 showed a solubility kinetic of 21.9 µg/mL (≈ 84.8 µM).
Compound Cc1cccc(C)c1NC(=O)COC(=O)C1CC1 has a solubility kinetic of 32.7 µg/mL (≈ 132 µM).
Cc1ccc(CC(=O)Nc2ccc(F)c([N+](=O)[O-])c2)cc1C showed a solubility kinetic of 4.1 µg/mL (≈ 13.6 µM).
For CCOC(=O)C1CCC(CNCc2ccccc2C)CC1.Cl (configuration not stated), the solubility kinetic was 44.3 µg/mL.
Work on CCC1(C)Cc2nc(Cl)c(C#N)cc2CO1 (configuration not stated) yielded a solubility kinetic of 34.2 µg/mL (≈ 144 µM).
Work on COc1cccc(C(=O)OCC(=O)N2CCc3ccccc3C2)c1OC yielded a solubility kinetic of 11.7 µg/mL (≈ 32.9 µM).
Work on CCCC(=O)OC/C(O)=C(\C#N)c1nc2ccccc2[nH]1 yielded a solubility kinetic of 32.4 µg/mL (≈ 114 µM).
With Cc1cccc(N2CC(C(=O)OCC(=O)Nc3sccc3C(N)=O)CC2=O)c1C (configuration not stated) the solubility kinetic was 6.5 µg/mL (≈ 15.6 µM).
Work on COC(=O)c1sccc1NC(=O)c1ccccc1C(=O)O yielded a solubility kinetic of 39.8 µg/mL (≈ 130 µM).
Cc1cc(C(=O)COc2cc(F)ccc2[N+](=O)[O-])c(C)n1C1CC1 gave a solubility kinetic of 3.3 µg/mL (≈ 9.93 µM).
Cc1ccc(S(=O)(=O)N2CCCC2)s1 showed a solubility kinetic of 32.3 µg/mL (≈ 140 µM).
For O=C(CSc1nnc(C2CC2)n1C1CC1)c1cccs1, the solubility kinetic was greater than 45.8 µg/mL.
Work on N#Cc1ccc(CSc2nc(N)cc(N)n2)cc1 yielded a solubility kinetic of 37.3 µg/mL (≈ 145 µM).
Compound CC1CCc2cc(F)ccc2N1S(=O)(=O)c1ccc(F)cc1 (configuration not stated) has a solubility kinetic of 2.4 µg/mL (≈ 7.42 µM).
For CN(Cc1ccccc1)C(=O)COC(=O)/C=C/c1ccc2c(c1)OCO2, the solubility kinetic was 22.3 µg/mL (≈ 63.1 µM).
With Cc1cc(N)ccc1NC(=O)CN1CCOCC1 the solubility kinetic was greater than 37.4 µg/mL.
O=C(NCCC1=CCCCC1)c1cc2ccccc2oc1=O showed a solubility kinetic of less than 0.6 µg/mL.
In the case of CCOc1ccccc1NC(=O)CNC(=O)Cc1ccccc1, the solubility kinetic is reported as 46.8 µg/mL (≈ 150 µM).
